Where “and” joins values, the source holds several entries; their conditions need not be identical. Equal entries are not always repeated. Structures can show the parent of a compound that is named as a salt.

Experiment [1] deals with T1, Alpha-1A adrenergic receptor (Oryctolagus cuniculus, UniProt O02824).
T1 sequence (O02824 whole entry): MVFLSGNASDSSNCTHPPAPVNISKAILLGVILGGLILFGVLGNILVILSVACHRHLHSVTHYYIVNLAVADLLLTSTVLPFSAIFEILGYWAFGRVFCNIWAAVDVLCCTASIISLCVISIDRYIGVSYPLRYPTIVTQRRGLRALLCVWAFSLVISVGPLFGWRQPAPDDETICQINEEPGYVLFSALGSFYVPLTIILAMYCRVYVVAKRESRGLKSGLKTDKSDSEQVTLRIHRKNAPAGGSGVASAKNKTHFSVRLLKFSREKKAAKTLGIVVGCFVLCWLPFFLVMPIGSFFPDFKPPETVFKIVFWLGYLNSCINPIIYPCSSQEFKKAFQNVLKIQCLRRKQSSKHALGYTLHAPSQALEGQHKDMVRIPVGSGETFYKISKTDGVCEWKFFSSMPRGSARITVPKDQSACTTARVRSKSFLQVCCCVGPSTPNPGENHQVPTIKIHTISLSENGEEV

The target of experiment [2] is T2, Alpha-1D adrenergic receptor (Mus musculus, UniProt P97714).
T2 sequence (P97714 whole entry): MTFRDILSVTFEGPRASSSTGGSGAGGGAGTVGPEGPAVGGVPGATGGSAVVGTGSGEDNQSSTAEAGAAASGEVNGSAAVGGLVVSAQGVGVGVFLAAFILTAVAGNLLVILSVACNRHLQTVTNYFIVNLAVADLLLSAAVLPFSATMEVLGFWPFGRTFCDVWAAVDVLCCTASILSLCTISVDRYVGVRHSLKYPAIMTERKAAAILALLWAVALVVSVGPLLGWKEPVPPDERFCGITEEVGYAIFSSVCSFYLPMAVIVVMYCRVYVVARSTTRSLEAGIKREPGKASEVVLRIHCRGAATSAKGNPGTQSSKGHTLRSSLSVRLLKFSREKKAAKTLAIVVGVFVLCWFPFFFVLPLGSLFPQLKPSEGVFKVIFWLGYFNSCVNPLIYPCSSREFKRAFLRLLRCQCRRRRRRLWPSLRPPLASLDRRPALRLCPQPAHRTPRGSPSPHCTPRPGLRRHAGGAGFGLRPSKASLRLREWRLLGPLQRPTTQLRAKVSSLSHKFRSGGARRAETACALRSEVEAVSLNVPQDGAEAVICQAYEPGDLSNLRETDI

The target of experiment [3] is T3, Alpha-2A adrenergic receptor (Cavia porcellus, UniProt Q60474).
T3 sequence (Q60474 whole entry): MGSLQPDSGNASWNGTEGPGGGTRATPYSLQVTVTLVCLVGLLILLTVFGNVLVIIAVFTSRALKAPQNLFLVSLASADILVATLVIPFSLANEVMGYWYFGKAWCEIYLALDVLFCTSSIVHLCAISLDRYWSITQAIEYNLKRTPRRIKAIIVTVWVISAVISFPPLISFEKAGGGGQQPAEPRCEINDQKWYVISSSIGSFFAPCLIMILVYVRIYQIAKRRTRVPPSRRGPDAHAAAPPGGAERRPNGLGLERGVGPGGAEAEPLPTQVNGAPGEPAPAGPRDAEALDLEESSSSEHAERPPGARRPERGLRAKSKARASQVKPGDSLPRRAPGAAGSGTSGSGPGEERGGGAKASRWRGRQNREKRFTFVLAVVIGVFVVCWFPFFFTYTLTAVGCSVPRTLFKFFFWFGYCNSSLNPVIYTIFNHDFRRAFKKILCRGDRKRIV

For experiment [4], the target named is T4, Alpha-1A adrenergic receptor (Canis lupus familiaris, UniProt O77621).
T4 sequence (O77621 whole entry): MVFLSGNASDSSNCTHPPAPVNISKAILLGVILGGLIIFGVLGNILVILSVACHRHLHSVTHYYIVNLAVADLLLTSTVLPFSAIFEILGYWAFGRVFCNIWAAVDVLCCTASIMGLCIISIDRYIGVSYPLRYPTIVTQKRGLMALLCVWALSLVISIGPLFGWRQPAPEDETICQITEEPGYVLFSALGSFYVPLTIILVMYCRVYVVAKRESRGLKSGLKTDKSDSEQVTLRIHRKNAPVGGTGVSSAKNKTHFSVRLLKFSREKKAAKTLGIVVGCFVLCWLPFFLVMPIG

In experiment [5] the target is T5, Alpha-2B adrenergic receptor (Canis lupus familiaris, UniProt Q2MDQ0).
T5 sequence (Q2MDQ0 whole entry): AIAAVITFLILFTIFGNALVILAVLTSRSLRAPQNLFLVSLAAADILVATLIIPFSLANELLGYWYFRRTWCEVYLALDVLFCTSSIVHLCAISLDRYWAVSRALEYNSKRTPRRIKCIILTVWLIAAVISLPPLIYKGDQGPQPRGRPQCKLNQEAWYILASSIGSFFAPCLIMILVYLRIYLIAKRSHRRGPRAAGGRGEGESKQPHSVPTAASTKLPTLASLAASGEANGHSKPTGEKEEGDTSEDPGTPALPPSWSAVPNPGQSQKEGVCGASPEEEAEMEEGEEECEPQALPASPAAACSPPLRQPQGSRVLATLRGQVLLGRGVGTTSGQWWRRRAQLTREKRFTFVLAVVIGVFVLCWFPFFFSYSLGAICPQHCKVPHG

Experiment [6] addresses T6, Alpha-2B adrenergic receptor (Oryctolagus cuniculus, UniProt O77830).
T6 sequence (O77830 whole entry): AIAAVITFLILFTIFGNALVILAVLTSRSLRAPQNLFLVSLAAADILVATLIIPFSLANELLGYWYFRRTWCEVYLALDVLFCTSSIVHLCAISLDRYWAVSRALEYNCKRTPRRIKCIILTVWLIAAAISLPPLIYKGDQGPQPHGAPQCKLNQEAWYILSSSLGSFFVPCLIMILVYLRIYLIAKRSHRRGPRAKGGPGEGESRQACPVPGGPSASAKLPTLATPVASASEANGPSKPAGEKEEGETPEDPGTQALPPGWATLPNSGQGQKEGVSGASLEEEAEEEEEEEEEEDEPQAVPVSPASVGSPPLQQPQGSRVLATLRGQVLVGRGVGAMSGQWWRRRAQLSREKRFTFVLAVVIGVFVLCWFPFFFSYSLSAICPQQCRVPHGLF

Consider `c1ccc2c(c1)OCC(C1=NCCN1)O2` (stereo not given), for which the Ki (in general, a measure of affinity in units of concentration, obtained from inhibition or displacement) turned out to be 2300 nM in experiment [1] and 12 nM in experiment [2].
Consider `CN1CCc2cccc(Cl)c2CC1` [MLS002172470], for which the inhibitory constant (Ki) worked out at 13 nM in experiment [3], 900 nM in experiment [1], 1100 nM in experiment [4] and 42 nM in experiment [5].
With `COC(=O)[C@H]1[C@H]2C[C@H]3c4[nH]c5ccccc5c4CCN3C[C@H]2CC[C@@H]1O` [RAUWOLSCINE HYDROCHLORIDE], the Ki was 1800 nM and 4000 nM and 1300 nM in experiment [1]; 234 nM in experiment [4].
For `COC(=O)[C@@H]1[C@H]2C[C@H]3c4[nH]c5ccccc5c4CCN3C[C@@H]2CC[C@@H]1O` [yohimbic acid methyl ester], the inhibitory constant (Ki) is 1100 nM and 275 nM in experiment [1]; 21 nM in experiment [6].

These data come from BindingDB's records for PubMed 2867217 (Smith Kline & French Laboratories, 1986).
